Laboratory results as given in patent publication US4727090A, “Process for preparing and therapeutical applications of the 2,4,6-triiodophenol” (Bislak, S.A., priority 1983, dated 1988).

What was measured:
Assay type in all cases: in vivo
vascular wall = test: Vascular wall distensibility by echo-Doppler in cardiovascular patients (antiatherosclerotic action); conditions: 30 mg/day intramuscular
From the text: (§1) The technology used to show the hemodynamic changes was of the non-invasivetype, as in this way experiments can be repeated and are completely innoxious for the patient. Of all the non-invasive methods of diagnosis we selected the most reliable of actual conditions, which is the method of ultrasounds (echo and Doppler's effects). The bidimensional echocardiography in real time, combined with pulsatile Doppler and the bidimensional vascular echography combined with pulsatile Doppler hemodynamic, are actually the two most reliable non-invasive techniques for the study of the anatomic changes and macroscopic hemodynamics with regard to the cardiovascular apparatus. That's why we used for the study of the clinical effects of the 2,4,6-triiodophenol an echo-Doppler trade mark ATL (Mark V), being the transmission frequency of 3 MHz, as well as a continuous Doppler trade mark SONICAID of 4 and 8 MHz.
(§2) Patients were divided in four statistically acceptable groups (50 in each group), comparing the results obtained with this medicament before, during and after the treatment.
(§3) Methodologically there are practiced echographical cuts in real time of the heart, big vases, supra-aortic trunks, abdominal aorta, portal and caval systems and iliac and femoral arteries, obtaining fluxmetric samples Doppler in all the mentioned cardiac cavities and blood vessels to study the sense of the flow, outflow (stream) or volume of flow and the hemodynamic features of the sanguineous flow.
(§4) Hereunder we expose the clinical results obtained after the administration during three months of the 2,4,6-triiodophenol in 200 cardiovascular patients.
(§5) Sick persons were divided in 4 groups; (1) 50 patients with cerebral vascular insufficiency, (2) 50 patients with coronary insufficiency, (3) 50 patients with hepatic insufficiency and (4) 50 patients with peripheral vascular insufficiency of the lower extremities. All these persons received an intramuscular administration, a dosage of 30 mg/day of 2,4,6-triiodophenol, carrying out controls at the first, second and third month of all angiohemodynamic parameters, supposing a total of 600 controls (150 per each group after the three months).

vascular surface = test: Vascular caliber by echo-Doppler in cardiovascular patients (vasodilatory action); conditions: 30 mg/day intramuscular
From the text: as §1, §2, §3, §4, §5

velocity of blood flow = test: Speed of flow by echo-Doppler in cardiovascular patients (fluidifying + hemodynamizing action); conditions: 30 mg/day intramuscular
From the text: as §1, §2, §3, §4, §5

waste (minute volume) = test: Waste / minute volume by echo-Doppler in cardiovascular patients (peripheral hyperemia); conditions: 30 mg/day intramuscular
From the text: as §1, §2, §3, §4, §5

pressure = test: Systemic arterial and portal pressure in cardiovascular patients (hypotensor action); conditions: 30 mg/day intramuscular
From the text: as §1, §2, §3, §4, §5

[1] = system: arthrosis and atherosclerosis patients; test: Summary of 175 clinic cases treated
From the text: Summary of 175 clinic cases treated with 2,4,6-triiodophenol.

[2] = cerebral atherosclerosis, 37 patients
[3] = cervical arthrosis, 34 patients
[4] = obliterant atherosclerosis, 14 patients
[5] = vertebral arthrosis, 56 patients

With `Oc1c(I)cc(I)cc1I` [2,4,6-triiodophenol] the “Distensibility, abdominal aorta, variation (Δ %)” value (vascular wall; 2nd month) was “+29%”, the “Distensibility, caval iliac artery, variation (Δ %)” value (vascular wall; 2nd month) was “+28%” and the “Distensibility, portal carotid aorta, variation (Δ %)” value (vascular wall; 2nd month) was “+27%”. The “Distensibility, portal vein, variation (Δ %)” value (vascular wall; 2nd month) was “+29,5%”, the “Distensibility, post caval system, variation (Δ %)” value (vascular wall; 2nd month) was “+12%” and the “Distensibility, thoracic aorta, variation (Δ %)” value (vascular wall; 2nd month) was “+11%”. The “Distensibility, abdominal aorta, variation (Δ %)” value (vascular wall; 3rd month) was “+31%”, the “Distensibility, average value (arteries), variation (Δ %)” value (vascular wall; 3rd month) was “+26%” and the “Distensibility, average value (veins), variation (Δ %)” value (vascular wall; 3rd month) was “+24%”. The “Distensibility, caval iliac artery, variation (Δ %)” value (vascular wall; 3rd month) was “+29,5%”, the “Distensibility, portal carotid aorta, variation (Δ %)” value (vascular wall; 3rd month) was “+30%” and the “Distensibility, portal vein, variation (Δ %)” value (vascular wall; 3rd month) was “+32%”. For the same compound, the “Distensibility, post caval system, variation (Δ %)” value (vascular wall; 3rd month) was “+15%”, the “Distensibility, thoracic aorta, variation (Δ %)” value (vascular wall; 3rd month) was “+14%” and the “Improvement of the parietal dynamic of all arteries” value (vascular wall; conclusions, three months) was 26%. For the same compound, the “Improvement of the parietal dynamic of veins” value (vascular wall; conclusions, three months) was 24%, the “Distensibility, abdominal aorta, variation (Δ %)” value (vascular wall; first month) was “+18%” and the “Distensibility, caval iliac artery, variation (Δ %)” value (vascular wall; first month) was “+12%”. For the same compound, the “Distensibility, portal carotid aorta, variation (Δ %)” value (vascular wall; first month) was “+17%”, the “Distensibility, portal vein, variation (Δ %)” value (vascular wall; first month) was “+15%” and the “Distensibility, post caval system, variation (Δ %)” value (vascular wall; first month) was “+7%”. The “Distensibility, thoracic aorta, variation (Δ %)” value (vascular wall; first month) was “+7%”, the “Vascular caliber, abdominal aorta, variation (Δ %)” value (vascular surface; 1st month) was “+6%” and the “Vascular caliber, caval iliac artery, variation (Δ %)” value (vascular surface; 1st month) was “+8%”. For the same compound, the “Vascular caliber, portal carotid aorta, variation (Δ %)” value (vascular surface; 1st month) was “+11%”, the “Vascular caliber, portal system, variation (Δ %)” value (vascular surface; 1st month) was -13% and the “Vascular caliber, postcaval system, variation (Δ %)” value (vascular surface; 1st month) was -9%. For the same compound, the “Vascular caliber, thoracic aorta, variation (Δ %)” value (vascular surface; 1st month) was “+3%”, the “Vascular caliber, abdominal aorta, variation (Δ %)” value (vascular surface; 2nd month) was “+11%” and the “Vascular caliber, caval iliac artery, variation (Δ %)” value (vascular surface; 2nd month) was “+12%”. The “Vascular caliber, portal carotid aorta, variation (Δ %)” value (vascular surface; 2nd month) was “+12%”, the “Vascular caliber, portal system, variation (Δ %)” value (vascular surface; 2nd month) was -23% and the “Vascular caliber, postcaval system, variation (Δ %)” value (vascular surface; 2nd month) was -14%. For the same compound, the “Vascular caliber, thoracic aorta, variation (Δ %)” value (vascular surface; 2nd month) was “+7%”, the “Vascular caliber, abdominal aorta, variation (Δ %)” value (vascular surface; 3rd month) was “+13%” and the “Vascular caliber, caval iliac artery, variation (Δ %)” value (vascular surface; 3rd month) was “+15%”. The “Vascular caliber, portal carotid aorta, variation (Δ %)” value (vascular surface; 3rd month) was “+13%”, the “Vascular caliber, portal system, variation (Δ %)” value (vascular surface; 3rd month) was -26% and the “Vascular caliber, postcaval system, variation (Δ %)” value (vascular surface; 3rd month) was -13%. For the same compound, the “Vascular caliber, thoracic aorta, variation (Δ %)” value (vascular surface; 3rd month) was “+9%”, the “Speed of flow, abdominal aorta, variation (Δ %)” value (velocity of blood flow; 1st month) was “+3%” and the “Speed of flow, caval iliac artery, variation (Δ %)” value (velocity of blood flow; 1st month) was “+7%”. The “Speed of flow, portal carotid aorta, variation (Δ %)” value (velocity of blood flow; 1st month) was “+11%”, the “Speed of flow, portal system, variation (Δ %)” value (velocity of blood flow; 1st month) was “+16%” and the “Speed of flow, postcaval system, variation (Δ %)” value (velocity of blood flow; 1st month) was “+8%”. For the same compound, the “Speed of flow, thoracic aorta, variation (Δ %)” value (velocity of blood flow; 1st month) was “+2%”, the “Speed of flow, abdominal aorta, variation (Δ %)” value (velocity of blood flow; 2nd month) was “+5%” and the “Speed of flow, caval iliac artery, variation (Δ %)” value (velocity of blood flow; 2nd month) was “+11%”. For the same compound, the “Speed of flow, portal carotid aorta, variation (Δ %)” value (velocity of blood flow; 2nd month) was “+14%”, the “Speed of flow, portal system, variation (Δ %)” value (velocity of blood flow; 2nd month) was “+21%” and the “Speed of flow, postcaval system, variation (Δ %)” value (velocity of blood flow; 2nd month) was “+12%”. For the same compound, the “Speed of flow, thoracic aorta, variation (Δ %)” value (velocity of blood flow; 2nd month) was “+3%”, the “Speed of flow, abdominal aorta, variation (Δ %)” value (velocity of blood flow; 3rd month) was “+7%” and the “Speed of flow, average value (arteries), variation (Δ %)” value (velocity of blood flow; 3rd month) was “+11%”. The “Speed of flow, average value (veins), variation (Δ %)” value (velocity of blood flow; 3rd month) was “+17%”, the “Speed of flow, caval iliac artery, variation (Δ %)” value (velocity of blood flow; 3rd month) was “+14%” and the “Speed of flow, portal carotid aorta, variation (Δ %)” value (velocity of blood flow; 3rd month) was “+19%”. The “Speed of flow, portal system, variation (Δ %)” value (velocity of blood flow; 3rd month) was “+29%”, the “Speed of flow, postcaval system, variation (Δ %)” value (velocity of blood flow; 3rd month) was “+15%” and the “Speed of flow, thoracic aorta, variation (Δ %)” value (velocity of blood flow; 3rd month) was “+5%”. For the same compound, the “Increase of speed of the sanguineous flow in the arteries” value (velocity of blood flow; conclusions, three months) was 11%, the “Increase of speed of the sanguineous flow in the veins” value (velocity of blood flow; conclusions, three months) was 17% and the “Cardiac waste, variation (Δ %)” value (waste (minute volume); 1st month) was “+5%”. For the same compound, the “Cerebral minute volume, variation (Δ %)” value (waste (minute volume); 1st month) was “+23%”, the “Hepatic minute volume (venous), variation (Δ %)” value (“Hepatic minute volume … (Δ %)” below) (waste (minute volume); 1st month) was “+24%” and the “Lower extremity minute volume, variation (Δ %)” value (waste (minute volume); 1st month) was “+10%”. The “Cardiac waste, variation (Δ %)” value (waste (minute volume); 2nd month) was “+6%”, the “Cerebral minute volume, variation (Δ %)” value (waste (minute volume); 2nd month) was “+27,6%” and the “Hepatic minute volume … (Δ %)” value (waste (minute volume); 2nd month) was “+16%”. The “Lower extremity minute volume, variation (Δ %)” value (waste (minute volume); 2nd month) was “+24%”, the “Cardiac waste, variation (Δ %)” value (waste (minute volume); 3rd month) was “+11%” and the “Cerebral minute volume, variation (Δ %)” value (waste (minute volume); 3rd month) was “+34%”. The “Hepatic minute volume … (Δ %)” value (waste (minute volume); 3rd month) was “+23%”, the “Lower extremity minute volume, variation (Δ %)” value (waste (minute volume); 3rd month) was “+30%” and the “Increase of volume of flow, cerebral” value (waste (minute volume); conclusions, three months) was 34%. The “Increase of volume of flow, hepatic” value (waste (minute volume); conclusions, three months) was 23%, the “Increase of volume of flow, lower member” value (waste (minute volume); conclusions, three months) was 30% and the “Increase of volume of flow, systemic circulatory minute” value (waste (minute volume); conclusions, three months) was 11%. For the same compound, the “Portal pressure, variation (Δ %)” value (pressure; 1st month) was -8%, the “Systemic arterial pressure, variation (Δ %)” value (pressure; 1st month) was -3% and the “Portal pressure, variation (Δ %)” value (pressure; 2nd month) was -11%. For the same compound, the “Systemic arterial pressure, variation (Δ %)” value (pressure; 2nd month) was -5%, the “Portal pressure, variation (Δ %)” value (pressure; 3rd month) was -13% and the “Systemic arterial pressure, variation (Δ %)” value (pressure; 3rd month) was -6%. The “% obtained results, B. (good)” value [1, 2] was 6,25%, the “% obtained results, E. (excellent)” value [1, 2] was 81,25% and the “% obtained results, N. (null)” value [1, 2] was 3,15%. The “% obtained results, R. (regular)” value [1, 2] was 9,35%, the “% obtained results, B. (good)” value [1, 3] was 3,22% and the “% obtained results, E. (excellent)” value [1, 3] was 90,34%. For the same compound, the “% obtained results, N. (null)” value [1, 3] was 3,22%, the “% obtained results, R. (regular)” value [1, 3] was 3,22% and the “% obtained results, B. (good)” value ([1]; hip arthrosis, 13 patients) was 23,10%. The “% obtained results, B. (good)” value ([1]; knee arthrosis, 16 patients) was 12,5%, the “% obtained results, E. (excellent)” value ([1]; knee arthrosis, 16 patients) was 81,25% and the “% obtained results, R. (regular)” value ([1]; knee arthrosis, 16 patients) was 6,25%. For the same compound, the “% obtained results, B. (good)” value ([1]; lumbar arthrosis, 4 patients) was 25%, the “% obtained results, E. (excellent)” value ([1]; lumbar arthrosis, 4 patients) was 50% and the “% obtained results, R. (regular)” value ([1]; lumbar arthrosis, 4 patients) was 25%. For the same compound, the “% obtained results, E. (excellent)” value ([1]; obliterant arthrosis, 1 patient) was 100%, the “% obtained results, B. (good)” value [1, 4] was 7,15% and the “% obtained results, E. (excellent)” value [1, 4] was 92,85%. For the same compound, the “(B) Good result, % of patients” value ([1]; total 175 patients) was 7,43%, the “(B) Good result, number of patients” value ([1]; total 175 patients) was 13 and the “(E) Excellent result, % of patients” value ([1]; total 175 patients) was 82,86%. The “(E) Excellent result, number of patients” value ([1]; total 175 patients) was 145, the “(N) Null result, % of patients” value ([1]; total 175 patients) was 1,71% and the “(N) Null result, number of patients” value ([1]; total 175 patients) was 3. The “(R) Regular result, % of patients” value ([1]; total 175 patients) was 8,00%, the “(R) Regular result, number of patients” value ([1]; total 175 patients) was 14 and the “% obtained results, B. (good)” value [1, 5] was 10,42%. The “% obtained results, E. (excellent)” value [1, 5] was 83,33% and the “% obtained results, R. (regular)” value [1, 5] was 6,25%.
